US20240208954A1, “OXADIAZOLE COMPOUND, PREPARATION METHOD THEREFOR, PHARMACEUTICAL COMPOSITION AND USE THEREOF” (SHANGHAI INSTITUTE OF MATERIA MEDICA, CHINESE ACADEMY OF …, priority 2020, published 2024)
Read-outs that look alike come from different tables or passages of the source.

Assays:
S1PR3 = S1PR3 (Homo sapiens, UniProt Q99500); test: Agonistic activity test on S1P receptors, FLIPR; assay type: cell-based; conditions: FLIPR agonist mode; read-out: S1PR3 EC50
Method: (§1) Instrument: FLIPR™ TETRA (Molecular Device)
(§2) Sample processing: Before the experiment, the working solution with the corresponding concentration was prepared by diluting with GPCR dilution buffer.
(§3) After 18-20 hours, the cell culture plat was taken out and added with dye working solution, and then the plate was placed in a 37° C./5% CO2 incubator for 1 hour, and finally equilibrated at room temperature for 15 minutes. Positive agonist working solution was added, and RFU values were detected and recorded. […] The positive agonist working fluid was added to the cell culture plate at the 21st second. […] The antagonistic mode detection program, the overall detection time of the instrument was 120 seconds, and positive antagonist working solution was added to the cell culture plate at the 21st second.
(§4) Data processing: Raw data were obtained via ScreenWorks (version 3.1) and saved as *FMD files on the Kingsray computer network system. Data were collected and analyzed using Excel and GraphPad Prism 6 software programs. For each well, the average fluorescence intensity value from 1 to 20 seconds was used as the baseline, and the maximum fluorescence intensity value from 21 to 120 seconds minus the minimum fluorescence intensity value from 21 to 120 seconds was the relative fluorescence intensity value (ARFU), from which the percentage activation or inhibition can be calculated based on the following equation.
(§5) % Activation Rate=(ΔRFUCompound-ΔRFUBackground)/(ΔRFUAgonist control-ΔRFUBackground)×100%
(§6) The data was analyzed using GraphPad Prism 6 with a four-parameter equation to calculate the EC50 and IC50 values. The four-parameter equation was as follows: y=Bottom+(Top-Bottom)/(1+10^((LogEC50/IC50-X)*HillSlope)), wherein X is the Log value of the concentration and Y was the inhibition rate.

S1PR1 = target: T1, S1PR1 (Homo sapiens, UniProt P21453); test: Agonistic activity test on S1P receptors, FLIPR, CHO-K1/Ga15/EDG1 cells; assay type: cell-based; conditions: CHO-K1/Ga15/EDG1 cells, FLIPR agonist mode, read-out: S1PR1 EC50
T1 construct: host or cells: CHO-K1 co-expressing Ga15
Method: as §1
Experimental materials: CHO-K1/Ga15/EDG1 cells constructed by GenScript autonomously.
as §2, §3, §4, §5, §6

T1 sequence (P21453 whole entry): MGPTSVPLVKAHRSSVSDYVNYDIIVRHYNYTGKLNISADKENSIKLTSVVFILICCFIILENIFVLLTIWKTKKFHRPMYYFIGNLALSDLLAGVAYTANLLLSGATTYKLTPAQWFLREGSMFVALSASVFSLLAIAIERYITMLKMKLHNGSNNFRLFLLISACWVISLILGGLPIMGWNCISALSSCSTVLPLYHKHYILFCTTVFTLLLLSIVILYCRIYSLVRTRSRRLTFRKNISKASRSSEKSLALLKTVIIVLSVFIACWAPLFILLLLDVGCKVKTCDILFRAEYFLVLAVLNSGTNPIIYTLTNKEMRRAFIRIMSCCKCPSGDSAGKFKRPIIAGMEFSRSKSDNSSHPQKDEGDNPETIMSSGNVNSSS
S1PR3, sequence (Q99500 whole entry, species assumed): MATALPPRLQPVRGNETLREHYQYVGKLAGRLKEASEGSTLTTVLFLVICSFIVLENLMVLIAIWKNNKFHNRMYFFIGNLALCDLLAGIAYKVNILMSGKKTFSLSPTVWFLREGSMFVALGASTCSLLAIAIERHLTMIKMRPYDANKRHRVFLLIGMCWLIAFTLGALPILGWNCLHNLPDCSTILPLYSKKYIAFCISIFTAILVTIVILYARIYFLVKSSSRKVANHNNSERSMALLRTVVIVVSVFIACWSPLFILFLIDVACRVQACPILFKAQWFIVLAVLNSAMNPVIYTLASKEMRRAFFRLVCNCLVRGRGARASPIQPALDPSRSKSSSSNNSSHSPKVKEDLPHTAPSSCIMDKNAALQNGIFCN

| SMILES | EC50 (S1PR3) [nM] | EC50 (S1PR1) [µM] | EC50 (S1PR1; cells printed in μM) [µM] |
| --- | --- | --- | --- |
| COc1cc(-c2nc(-c3ccc(CN4CC(C(=O)O)C4)c4ccccc34)no2)ccc1OC(C)C [Compound A13, 1-((4-(5-(4-isopropoxy-3-methoxyphenyl)-1,2,4-oxadiazol-3-yl)naphthalen-1-yl)methyl) azetidine-3-carboxylic acid hydrochloric acid] | > 10000 | 1.55 |  |
| O=C(O)C1CN(Cc2ccc(-c3noc(/C=C/c4ccccc4)n3)c3ccccc23)C1 [Compound A38, (E)-1-((4-(5-styryl-1,2,4-oxadiazol-3-yl)naphthalen-1-yl)methyl) azetidine-3-carboxylic acid hydrochloric acid] | > 10000 | 1.42 |  |
| O=C(O)C1CN(Cc2ccc(-c3noc(-c4ccccc4)n3)c3ccccc23)C1 [Compound A26, 1-((4-(5-phenyl-1,2,4-oxadiazol-3-yl)naphthalen-1-yl)methyl) azetidine-3-carboxylic acid hydrochloric acid] | > 10000 | 0.749 |  |
| O=C(O)C1CN(Cc2ccc(-c3noc(-c4cccnc4)n3)c3ccccc23)C1 [Compound A28, 1-((4-(5-(pyridin-3-yl)-1,2,4-oxadiazol-3-yl)naphthalen-1-yl)methyl) azetidine-3-carboxylic acid hydrochloric acid] | > 10000 | 1.18 |  |
| O=C(O)C1CN(Cc2ccc(-c3noc(-c4cnc5ccccc5c4)n3)c3ccccc23)C1 [Compound A33, 1-((4-(5-(quinolin-3-yl)-1,2,4-oxadiazol-3-yl)naphthalen-1-yl)methyl) azetidine-3-carboxylic acid hydrochloric acid] | > 10000 | 0.933 |  |
| O=C(O)C1CN(Cc2ccc(-c3noc(-c4ccc5c(c4)OCO5)n3)c3ccccc23)C1 [Compound A31] | > 10000 | 1.3 |  |
| O=C(O)C1CN(Cc2ccc(-c3noc(-c4cnc5ccccc5n4)n3)c3ccccc23)C1 [Compound A34, 1-((4-(5-(quinoxaline-2-yl)-1,2,4-oxadiazol-3-yl)naphthalen-1-yl)methyl) azetidine-3-carboxylic acid hydrochloric acid] | > 10000 | 0.739 |  |
| CCCOc1ccc(-c2nc(-c3ccc(CN4CC(C(=O)O)C4)c4ccccc34)no2)cc1 [Compound A17, 1-((4-(5-(4-propoxyphenyl)-1,2,4-oxadiazol-3-yl)naphthalen-1-yl)methyl) azetidine-3-carboxylic acid hydrochloric acid] | > 10000 |  | > 10 |
| O=C(O)C1CN(Cc2ccc(-c3noc(-c4ccc5c(c4)OCCO5)n3)c3ccccc23)C1 [Compound A32, 1-((4-(5-(2,3-dihydrobenzo[b][1,4]dioxin-6-yl)-1,2,4-oxadiazol-3-yl)naphthalen-1-yl)methyl) azetidine-3-carboxylic acid hydrochloric acid] | > 10000 | 0.617 |  |
| O=C(O)C1CN(Cc2ccc(-c3noc(-c4ccncc4)n3)c3ccccc23)C1 [Compound A27, 1-((4-(5-(pyridin-4-yl)-1,2,4-oxadiazol-3-yl)naphthalen-1-yl)methyl) azetidine-3-carboxylic acid hydrochloric acid] | > 10000 |  | > 10 |
| O=C(O)C1CN(Cc2ccc(-c3noc(-c4ccc5[nH]ccc5c4)n3)c3ccccc23)C1 [Compound A35, 1-((4-(5-(1H-indole-5-yl)-1,2,4-oxadiazol-3-yl)naphthalen-1-yl)methyl) azetidine-3-carboxylic acid hydrochloric acid] | > 10000 | 1.96 |  |
| N#Cc1ccc(-c2nc(-c3ccc(CN4CC(C(=O)O)C4)c4ccccc34)no2)cc1 [Compound A22, 1-((4-(5-(4-cyanophenyl)-1,2,4-oxadiazol-3-yl)naphthalen-1-yl)methyl) azetidine-3-carboxylic acid hydrochloric acid] | > 10000 | 1.13 |  |
| O=C(O)C1CN(Cc2ccc(-c3noc(-c4ccccn4)n3)c3ccccc23)C1 [Compound A29, 1-((4-(5-(pyridin-2-yl)-1,2,4-oxadiazol-3-yl)naphthalen-1-yl)methyl) azetidine-3-carboxylic acid hydrochloric acid] | > 10000 | 0.993 |  |
| CC(C)Oc1ccc(-c2nc(-c3ccc(CN4CC(C(=O)O)C4)c4ccccc34)no2)cc1Br [Compound A11, 1-((4-(5-(3-bromo-4-isopropoxyphenyl)-1,2,4-oxadiazol-3-yl)naphthalen-1-yl)methyl) azetidine-3-carboxylic acid hydrochloric acid] | > 10000 | 1.37 |  |
| O=C(O)C1CN(Cc2ccc(-c3noc(C4CCCCC4)n3)c3ccccc23)C1 [Compound A39, 1-((4-(5-cyclohexyl-1,2,4-oxadiazol-3-yl)naphthalen-1-yl)methyl) azetidine-3-carboxylic acid hydrochloric acid] | > 10000 | 0.831 |  |
| N#Cc1cccc(-c2nc(-c3ccc(CN4CC(C(=O)O)C4)c4ccccc34)no2)c1 [Compound A24, 1-((4-(5-(3-cyanophenyl)-1,2,4-oxadiazol-3-yl)naphthalen-1-yl)methyl) azetidine-3-carboxylic acid hydrochloric acid] | > 10000 | 0.685 |  |
| CC(C)Oc1ccc(-c2nc(-c3ccc(CN4CC(C(=O)O)C4)c4ccccc34)no2)cc1 [Compound A14, 1-((4-(5-(4-isopropoxyphenyl)-1,2,4-oxadiazol-3-yl)naphthalen-1-yl)methyl) azetidine-3-carboxylic acid hydrochloric acid] | > 10000 | 1.67 |  |
| Cn1c(-c2nc(-c3ccc(CN4CC(C(=O)O)C4)c4ccccc34)no2)cc2ccccc21 [Compound A37, 1-((4-(5-(1-methyl-1H-indole-2-yl)-1,2,4-oxadiazol-3-yl)naphthalen-1-yl)methyl) azetidine-3-carboxylic acid hydrochloric acid] | > 10000 |  | > 10 |
| CC(C)c1ccc(-c2nc(-c3ccc(CN4CC(C(=O)O)C4)c4ccccc34)no2)cc1 [Compound A20, 1-((4-(5-(4-isopropylphenyl)-1,2,4-oxadiazol-3-yl)naphthalen-1-yl)methyl) azetidine-3-carboxylic acid hydrochloric acid] | > 10000 | 1.05 |  |
| O=C(O)C1CN(Cc2ccc(-c3noc(-c4ccc(OC(F)(F)F)cc4)n3)c3ccccc23)C1 [Compound A19, 1-((4-(5-(4-(trifluoromethoxy)phenyl)-1,2,4-oxadiazol-3-yl)naphthalen-1-yl)methyl) azetidine-3-carboxylic acid hydrochloric acid] | > 10000 | 1.13 |  |
| COc1ccc(-c2nc(-c3ccc(CN4CC(C(=O)O)C4)c4ccccc34)no2)cc1 [Compound A16, 1-((4-(5-(4-methoxyphenyl)-1,2,4-oxadiazol-3-yl)naphthalen-1-yl)methyl) azetidine-3-carboxylic acid hydrochloric acid] | > 10000 | 1.17 |  |
| O=C(O)C1CN(Cc2ccc(-c3noc(-c4cc5ccccc5[nH]4)n3)c3ccccc23)C1 [Compound A36, 1-((4-(5-(1H-indole-2-yl)-1,2,4-oxadiazol-3-yl)naphthalen-1-yl)methyl) azetidine-3-carboxylic acid hydrochloric acid] | > 10000 | 1.11 |  |
